Results: PubChem BioAssay (NCI)
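Assay format: 96-well plates, 48-hour exposure. Abbreviation: GI50, concentration required for 50% inhibition of growth. TGI is the concentration that stops growth completely.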

Assays:
Assay in all cases: NCI tumour cell line growth inhibition, 48 h
OVCAR-8 ovarian = tested on: OVCAR-8 ovarian
OVCAR-3 ovarian = tested on: OVCAR-3 ovarian
SF-268 CNS = tested on: SF-268 CNS
HCT-15 colon = tested on: HCT-15 colon
NCI-H23 lung = tested on: NCI-H23 lung
A498 renal = tested on: A498 renal
MOLT-4 leukemia = tested on: MOLT-4 leukemia
SR leukemia = tested on: SR leukemia
IGROV1 ovarian = tested on: IGROV1 ovarian
M14 melanoma = tested on: M14 melanoma
K-562 leukemia = tested on: K-562 leukemia
NCI-H522 lung = tested on: NCI-H522 lung
COLO 205 colon = tested on: COLO 205 colon
MDA-MB-231 breast = tested on: MDA-MB-231 breast
NCI-H226 lung = tested on: NCI-H226 lung
SNB-75 CNS = tested on: SNB-75 CNS
SN12C renal = tested on: SN12C renal
MDA-MB-468 breast = tested on: MDA-MB-468 breast
SF-295 CNS = tested on: SF-295 CNS
SF-539 CNS = tested on: SF-539 CNS
HOP-92 NSCLC = tested on: HOP-92 NSCLC
BT-549 breast = tested on: BT-549 breast
786-0 renal = tested on: 786-0 renal
HS 578T breast = tested on: HS 578T breast
UO-31 renal = tested on: UO-31 renal
SK-MEL-28 melanoma = tested on: SK-MEL-28 melanoma
CCRF-CEM leukemia = tested on: CCRF-CEM leukemia
HCC-2998 colon = tested on: HCC-2998 colon
SK-MEL-2 melanoma = tested on: SK-MEL-2 melanoma
TK-10 renal = tested on: TK-10 renal
RXF 393 renal = tested on: RXF 393 renal
T-47D breast = tested on: T-47D breast
LOX IMVI melanoma = tested on: LOX IMVI melanoma
HOP-62 NSCLC = tested on: HOP-62 NSCLC
MALME-3M melanoma = tested on: MALME-3M melanoma
MCF7 breast = tested on: MCF7 breast
DU-145 prostate = tested on: DU-145 prostate
MDA-MB-435 = tested on: MDA-MB-435
HCT-116 colon = tested on: HCT-116 colon
SK-OV-3 ovarian = tested on: SK-OV-3 ovarian
SK-MEL-5 melanoma = tested on: SK-MEL-5 melanoma
U251 CNS = tested on: U251 CNS
RPMI-8226 leukemia = tested on: RPMI-8226 leukemia
OVCAR-4 ovarian = tested on: OVCAR-4 ovarian
UACC-257 melanoma = tested on: UACC-257 melanoma
KM12 colon = tested on: KM12 colon
NCI-H460 lung = tested on: NCI-H460 lung
PC-3 prostate = tested on: PC-3 prostate
HL-60(TB) leukemia = tested on: HL-60(TB) leukemia
CAKI-1 renal = tested on: CAKI-1 renal
SNB-19 CNS = tested on: SNB-19 CNS
HT29 colon = tested on: HT29 colon
SW-620 colon = tested on: SW-620 colon
ACHN renal = tested on: ACHN renal
UACC-62 melanoma = tested on: UACC-62 melanoma
OVCAR-5 ovarian = tested on: OVCAR-5 ovarian
A549 NSCLC = tested on: A549 NSCLC

With `O=C(Nc1ccc(I)cc1F)c1cc(-c2ccc(F)cc2F)ccc1O` the GI50 (OVCAR-8 ovarian) was 3.17 µM, the TGI (OVCAR-8 ovarian) was 32.9 µM and the GI50 (OVCAR-3 ovarian) was 3.04 µM. It also gave a TGI (OVCAR-3 ovarian) of 9.16 µM, a GI50 (SF-268 CNS) of 3.1 µM and a TGI (SF-268 CNS) of over 100 µM. For the same molecule, the GI50 (HCT-15 colon) was 3.07 µM, the TGI (HCT-15 colon) was 28.8 µM and the GI50 (NCI-H23 lung) was 2.14 µM. The TGI (NCI-H23 lung) was 6.04 µM, the GI50 (A498 renal) was 2.54 µM and the TGI (A498 renal) was 7.14 µM. It also gave a GI50 (MOLT-4 leukemia) of 2.58 µM, a TGI (MOLT-4 leukemia) of 9.32 µM and a GI50 (SR leukemia) of 2.49 µM. It also gave a TGI (SR leukemia) of 8.71 µM, a GI50 (IGROV1 ovarian) of 4.65 µM and a TGI (IGROV1 ovarian) of over 100 µM. It also gave a GI50 (M14 melanoma) of 2.05 µM, a TGI (M14 melanoma) of 5.48 µM and a GI50 (K-562 leukemia) of 2.77 µM. For the same molecule, the TGI (K-562 leukemia) was 11 µM, the GI50 (NCI-H522 lung) was 2.71 µM and the TGI (NCI-H522 lung) was 8.62 µM. For the same molecule, the GI50 (COLO 205 colon) was 1.91 µM, the TGI (COLO 205 colon) was 4.13 µM and the GI50 (MDA-MB-231 breast) was 1.88 µM. It also gave a TGI (MDA-MB-231 breast) of 4.31 µM, a GI50 (NCI-H226 lung) of 2.21 µM and a TGI (NCI-H226 lung) of 6.3 µM. The GI50 (SNB-75 CNS) was 1.49 µM, the TGI (SNB-75 CNS) was 3.92 µM and the GI50 (SN12C renal) was 2.34 µM. The TGI (SN12C renal) was 6.88 µM, the GI50 (MDA-MB-468 breast) was 2.2 µM and the TGI (MDA-MB-468 breast) was 5.76 µM. The GI50 (SF-295 CNS) was 2.12 µM, the TGI (SF-295 CNS) was 4.91 µM and the GI50 (SF-539 CNS) was 3.2 µM. It also gave a TGI (SF-539 CNS) of 11.6 µM, a GI50 (HOP-92 NSCLC) of 2.42 µM and a TGI (HOP-92 NSCLC) of 5.93 µM. For the same molecule, the GI50 (BT-549 breast) was 2.36 µM, the TGI (BT-549 breast) was 6.08 µM and the GI50 (786-0 renal) was 3.06 µM. For the same molecule, the TGI (786-0 renal) was 9.11 µM, the GI50 (HS 578T breast) was 2.58 µM and the TGI (HS 578T breast) was 7.38 µM. It also gave a GI50 (UO-31 renal) of 2.44 µM, a TGI (UO-31 renal) of 9.57 µM and a GI50 (SK-MEL-28 melanoma) of 3.76 µM. It also gave a TGI (SK-MEL-28 melanoma) of over 100 µM, a GI50 (CCRF-CEM leukemia) of 3.31 µM and a TGI (CCRF-CEM leukemia) of 17 µM. For the same molecule, the GI50 (HCC-2998 colon) was 3.12 µM, the TGI (HCC-2998 colon) was 26.5 µM and the GI50 (SK-MEL-2 melanoma) was 1.79 µM. For the same molecule, the TGI (SK-MEL-2 melanoma) was 4.16 µM, the GI50 (TK-10 renal) was 3.96 µM and the TGI (TK-10 renal) was 11.1 µM. The GI50 (RXF 393 renal) was 1.88 µM, the TGI (RXF 393 renal) was 5.45 µM and the GI50 (T-47D breast) was 2.12 µM. For the same molecule, the TGI (T-47D breast) was 6.04 µM, the GI50 (LOX IMVI melanoma) was 3.21 µM and the TGI (LOX IMVI melanoma) was 10.9 µM. The GI50 (HOP-62 NSCLC) was 1.97 µM, the TGI (HOP-62 NSCLC) was 4.91 µM and the GI50 (MALME-3M melanoma) was 2.98 µM. The TGI (MALME-3M melanoma) was 7.93 µM, the GI50 (MCF7 breast) was 2.7 µM and the TGI (MCF7 breast) was 11 µM. For the same molecule, the GI50 (DU-145 prostate) was 3.68 µM, the TGI (DU-145 prostate) was over 100 µM and the GI50 (MDA-MB-435) was 2.59 µM. For the same molecule, the TGI (MDA-MB-435) was 7.58 µM, the GI50 (HCT-116 colon) was 2.8 µM and the TGI (HCT-116 colon) was 8.81 µM. It also gave a GI50 (SK-OV-3 ovarian) of 2.04 µM, a TGI (SK-OV-3 ovarian) of 5.55 µM and a GI50 (SK-MEL-5 melanoma) of 1.72 µM. The TGI (SK-MEL-5 melanoma) was 3.29 µM, the GI50 (U251 CNS) was 2.31 µM and the TGI (U251 CNS) was 5.94 µM. It also gave a GI50 (RPMI-8226 leukemia) of 2.1 µM, a TGI (RPMI-8226 leukemia) of 5.67 µM and a GI50 (OVCAR-4 ovarian) of 3.16 µM. The TGI (OVCAR-4 ovarian) was 27.1 µM, the GI50 (UACC-257 melanoma) was 2.41 µM and the TGI (UACC-257 melanoma) was 7.15 µM. The GI50 (KM12 colon) was 2.78 µM, the TGI (KM12 colon) was 8.1 µM and the GI50 (NCI-H460 lung) was 2.78 µM. For the same molecule, the TGI (NCI-H460 lung) was 8.42 µM, the GI50 (PC-3 prostate) was 3.09 µM and the TGI (PC-3 prostate) was over 100 µM. For the same molecule, the GI50 (HL-60(TB) leukemia) was 1.8 µM, the TGI (HL-60(TB) leukemia) was 5.66 µM and the GI50 (CAKI-1 renal) was 1.71 µM. It also gave a TGI (CAKI-1 renal) of 4.83 µM, a GI50 (SNB-19 CNS) of 3.38 µM and a TGI (SNB-19 CNS) of over 100 µM. The GI50 (HT29 colon) was 3.77 µM, the TGI (HT29 colon) was over 100 µM and the GI50 (SW-620 colon) was 3.31 µM. The TGI (SW-620 colon) was 13.6 µM, the GI50 (ACHN renal) was 3.06 µM and the TGI (ACHN renal) was 11.1 µM. The GI50 (UACC-62 melanoma) was 2.32 µM, the TGI (UACC-62 melanoma) was 6.89 µM and the GI50 (OVCAR-5 ovarian) was 6.63 µM. For the same molecule, the TGI (OVCAR-5 ovarian) was over 100 µM, the GI50 (A549 NSCLC) was 3.09 µM and the TGI (A549 NSCLC) was 47.4 µM.
